US20160297830A1, “NOVEL COMPOUNDS USEFUL FOR THE TREATMENT OF BACTERIAL INFECTIOUS DISEASES” (GALAPAGOS NV, priority 2013, published 2016)
≈ marks a conversion by molar mass, not a printed value. Where two headings read alike, the source gives them in different places.

Tests used:
[1] = system: H. influenza Hi106 ATCC 51907; experiment: organism not typed; assay type: cell-based; details: read-out: MIC Hi106
[2] = system: S. aureus Sa2 clinical strain NCIMB 41953, MRSA; experiment: microbe, parasite or virus in culture; assay type: cell-based; details: Staphylococcus aureus, read-out: MIC Sa2
[3] = system: E. coli Ec50 efflux pump KO; experiment: microbe, parasite or virus in culture; assay type: cell-based; details: Escherichia coli, read-out: MIC Ec50 efflux pump KO
[4] = system: H. influenza Hi3 ATCC 31517; experiment: organism not typed; assay type: cell-based; details: read-out: MIC Hi3
[5] = system: S. aureus Sa26 ATCC 25923; experiment: Antibacterial activity assay (MIC), S. aureus Sa26; assay type: cell-based; details: Staphylococcus aureus
[6] = molecular target: DNA Polymerase IIIα (DnaE) from Staphylococcus aureus (Staphylococcus aureus, UniProt Q6GG04); experiment: biochemical
S. aureus Sa1 ATCC 13709 = experiment: microbe, parasite or virus in culture; assay type: cell-based; details: Staphylococcus aureus
E. coli Ec1 ATCC 25922 = experiment: Antibacterial activity assay (MIC), E. coli Ec1; assay type: cell-based; details: Escherichia coli
S. aureus Sa4 NCTC 6571 = experiment: Antibacterial activity assay (MIC), S. aureus Sa4; assay type: cell-based; details: Staphylococcus aureus
[7] = system: H. influenza Hi47 clinical strain, Ampicillin Resistant; experiment: organism not typed; assay type: cell-based; details: read-out: MIC Hi47
DNA III Polymerase E = DNA III Polymerase E (Escherichia coli, UniProt P10443); experiment: In vitro activity against DNA III Polymerase E, E. coli; assay type: biochemical
Description: A radioactive filterplate assay was used to assess inhibitory activity of compounds on DNA Polymerase IIIα. Five μL of a dilution series of compound, starting from 100 μM highest concentration, 1/5 dilution, was added to the wells of a 96 well plate. Recombinant enzyme was diluted to 0.47 μg/mL in a buffer containing 20 mM Tris pH7.5, 8 mM DTT, 10 mM MgOAc, 0.05% CHAPS and 10 μL thereof was added to the compound dilutions. The reaction was started with the addition of 10 μL substrate in the same buffer, containing activated calf thymus DNA (Sigma, D4522), dATP, dGTP, dCTP, dTTP (Invitrogen) and [α-33P]-dTTP (Perkin Elmer, NEG605H001) at a concentration of 62.5 μg/mL, 50 nM and 7.5 μCi/mL respectively. The mixture was incubated at 30° C. for 120 minutes and terminated by addition of phosphoric acid. Samples were transferred to filter plates and incorporated radioactivity was measured by the Topcount. Data were converted to percent inhibition with respect to positive and negative controls. IC50 values were calculated using Graph Prism™ software.

[8] = system: H. influenza Hi10 clinical strain; experiment: organism not typed; assay type: cell-based; details: read-out: MIC Hi10
[9] = system: E. coli Ec113 efflux pump KO; experiment: microbe, parasite or virus in culture; assay type: cell-based; details: Escherichia coli, read-out: MIC Ec113 efflux pump KO
[10] = ATCC25923, read-out: MIC Sa26 + 10% SH, S. aureus Sa26 + 10% SH
[11] = ATCC25923, read-out: MIC Sa26 + 50% SH, S. aureus Sa26 + 50% SH
[12] = ATCC25923, S. aureus Sa26 ATCC 25923, sensitive strain, Mueller-Hinton Broth, 37° C., read-out: MIC Sa26
[13] = DNA polymerase III, S. aureus, read-out: IC50 semiquantitative scoring, S. aureus
[14] = ATCC13709, S. aureus Sa1 ATCC 13709, sensitive strain, Mueller-Hinton Broth, 37° C., read-out: MIC Sa1
[15] = ATCC25922, E. coli Ec1 ATCC 25922, sensitive strain, read-out: MIC Ec1
[16] = NCTC6571, S. aureus Sa4 NCTC 6571, sensitive strain, read-out: MIC Sa4
[17] = DNA polymerase III, E. coli, read-out: IC50 semiquantitative scoring, E. coli

Sequence of DNA III Polymerase E (P10443 whole entry): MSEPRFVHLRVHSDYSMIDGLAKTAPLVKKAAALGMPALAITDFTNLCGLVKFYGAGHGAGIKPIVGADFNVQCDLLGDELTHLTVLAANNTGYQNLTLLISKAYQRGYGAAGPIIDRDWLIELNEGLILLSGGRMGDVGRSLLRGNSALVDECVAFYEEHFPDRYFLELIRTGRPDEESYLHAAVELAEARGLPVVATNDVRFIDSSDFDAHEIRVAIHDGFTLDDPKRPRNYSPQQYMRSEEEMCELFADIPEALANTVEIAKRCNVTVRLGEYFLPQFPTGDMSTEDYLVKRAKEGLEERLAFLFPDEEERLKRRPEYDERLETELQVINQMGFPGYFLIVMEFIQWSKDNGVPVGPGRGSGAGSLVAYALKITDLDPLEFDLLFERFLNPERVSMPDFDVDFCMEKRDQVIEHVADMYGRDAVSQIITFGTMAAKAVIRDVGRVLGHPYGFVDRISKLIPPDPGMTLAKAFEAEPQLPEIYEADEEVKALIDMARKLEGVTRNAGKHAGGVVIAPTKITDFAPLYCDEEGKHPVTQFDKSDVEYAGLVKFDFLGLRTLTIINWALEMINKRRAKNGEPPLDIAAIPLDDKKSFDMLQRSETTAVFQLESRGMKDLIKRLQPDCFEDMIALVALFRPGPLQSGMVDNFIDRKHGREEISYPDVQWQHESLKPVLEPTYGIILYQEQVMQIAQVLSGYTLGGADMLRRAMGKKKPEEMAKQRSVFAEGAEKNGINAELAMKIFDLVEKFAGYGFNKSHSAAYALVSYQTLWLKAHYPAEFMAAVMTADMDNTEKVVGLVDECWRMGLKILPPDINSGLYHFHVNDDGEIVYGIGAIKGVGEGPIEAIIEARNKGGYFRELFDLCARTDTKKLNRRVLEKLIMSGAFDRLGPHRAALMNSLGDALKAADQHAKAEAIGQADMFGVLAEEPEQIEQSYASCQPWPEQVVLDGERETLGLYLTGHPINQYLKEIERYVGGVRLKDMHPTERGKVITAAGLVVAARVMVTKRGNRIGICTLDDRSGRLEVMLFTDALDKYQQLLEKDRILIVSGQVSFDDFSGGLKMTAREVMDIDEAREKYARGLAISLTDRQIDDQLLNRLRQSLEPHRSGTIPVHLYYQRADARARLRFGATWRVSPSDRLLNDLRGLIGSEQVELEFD
Sequence of DNA Polymerase IIIα (DnaE) from Staphylococcus aureus (Q6GG04 1-1022): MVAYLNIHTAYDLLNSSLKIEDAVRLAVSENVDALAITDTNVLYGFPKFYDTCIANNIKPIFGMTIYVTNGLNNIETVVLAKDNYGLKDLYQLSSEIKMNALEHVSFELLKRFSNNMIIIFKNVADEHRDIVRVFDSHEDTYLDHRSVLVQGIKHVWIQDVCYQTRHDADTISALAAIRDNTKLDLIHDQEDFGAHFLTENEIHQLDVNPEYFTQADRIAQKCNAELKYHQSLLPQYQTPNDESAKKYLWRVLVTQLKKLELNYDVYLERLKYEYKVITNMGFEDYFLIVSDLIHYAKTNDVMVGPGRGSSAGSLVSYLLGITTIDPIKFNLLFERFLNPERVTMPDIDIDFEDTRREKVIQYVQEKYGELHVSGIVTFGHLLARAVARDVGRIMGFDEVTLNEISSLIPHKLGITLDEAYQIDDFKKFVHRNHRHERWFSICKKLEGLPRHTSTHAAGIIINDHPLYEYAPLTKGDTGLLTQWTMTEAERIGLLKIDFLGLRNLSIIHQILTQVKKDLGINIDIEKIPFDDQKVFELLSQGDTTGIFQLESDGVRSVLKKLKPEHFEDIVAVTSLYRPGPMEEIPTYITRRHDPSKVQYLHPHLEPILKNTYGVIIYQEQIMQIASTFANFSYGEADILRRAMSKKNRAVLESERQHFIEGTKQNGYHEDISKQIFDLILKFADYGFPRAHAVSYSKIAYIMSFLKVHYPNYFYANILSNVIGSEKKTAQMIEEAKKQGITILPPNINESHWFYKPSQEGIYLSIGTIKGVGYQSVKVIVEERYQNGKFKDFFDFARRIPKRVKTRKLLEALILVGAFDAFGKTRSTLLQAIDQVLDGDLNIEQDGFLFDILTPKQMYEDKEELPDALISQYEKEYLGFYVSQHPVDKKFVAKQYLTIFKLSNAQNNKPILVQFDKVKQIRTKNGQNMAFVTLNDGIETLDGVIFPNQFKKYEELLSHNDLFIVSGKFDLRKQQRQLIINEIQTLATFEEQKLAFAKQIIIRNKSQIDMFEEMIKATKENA

| SMILES | MIC [1] [µg/mL] | MIC [2] [µg/mL] | MIC [3] [µg/mL] | MIC [4] [µg/mL] | MIC [5, 10] [µg/mL] | MIC [5, 11] [µg/mL] | MIC [5, 12] [µg/mL] | IC50 [6, 13] [µM] | MIC (S. aureus Sa1 ATCC 13709; [14]) [µg/mL] | MIC (E. coli Ec1 ATCC 25922; [15]) [µg/mL] | MIC (S. aureus Sa4 NCTC 6571; [16]) [µg/mL] | MIC [7] [µg/mL] | IC50 (DNA III Polymerase E; [17]) [µM] | MIC [8] [µg/mL] | MIC [9] [µg/mL] | IC50 [6] [µM] | IC50 (DNA III Polymerase E) [µM] | also measured |
| --- | --- | --- | --- | --- | --- | --- | --- | --- | --- | --- | --- | --- | --- | --- | --- | --- | --- | --- |
| COC[C@@H]1[C@@H](O)[C@@H]2[C@H]3C=C[C@@H]4[C@@H](COC)C(=O)O[C@H]([C@H](O)COC)[C@H](C)/C=C(\C)[C@@]24O[C@H]3[C@@H]1OC(=O)c1cocn1 [Compound 8, 8-O-Oxazole-4′-carbonylbranimycin] | > 64 | > 64 | > 64 | > 64 | > 64 | > 64 | > 64 | 1.73 to 17.3 | > 64 | > 64 | > 64 | > 64 | > 17.3 | > 64 | 64 (≈ 111 µM) | – | – | – |
| COC[C@@H]1[C@@H](O)[C@@H]2[C@H]3C=C[C@@H]4[C@@H](COC)C(=O)O[C@H]([C@H](O)COC)[C@H](C)/C=C(\C)[C@@]24O[C@H]3[C@@H]1OC(=O)c1ccoc1C [Compound 11, 8-O-2-Methylfurane-3′-carbonylbranimycin] | > 64 | > 64 | > 64 | > 64 | > 64 | > 64 | > 64 | – | > 64 | > 64 | > 64 | > 64 | – | > 64 | 8 (≈ 13.5 µM) | 1.69 to 16.9 | > 16.9 | – |
| COC[C@@H]1[C@@H](O)[C@@H]2[C@H]3C=C[C@@H]4[C@@H](COC)C(=O)O[C@H]([C@H](O)COC)[C@H](C)/C=C(\C)[C@@]24O[C@H]3[C@@H]1OC(=O)c1ccon1 [Compound 13, 8-O-Isoxazole-3′-carbonylbranimycin] | > 64 | > 64 | 64 (≈ 111 µM) | > 64 | > 64 | > 64 | > 64 | 1.73 to 17.3 | > 64 | > 64 | 64 (≈ 111 µM) | 64 (≈ 111 µM) | > 17.3 | > 64 | 8 (≈ 13.8 µM) | – | – | – |
| COC[C@@H]1[C@@H](O)[C@@H]2[C@H]3C=C[C@@H]4[C@@H](COC)C(=O)O[C@H]([C@H](O)COC)[C@H](C)/C=C(\C)[C@@]24O[C@H]3[C@@H]1OC(=O)c1cc(C)c[nH]1 [Compound 12, 8-O-4-Methyl-1H-pyrrole-2′-carbonylbranimycin] | 64 (≈ 109 µM) | 4 (≈ 6.78 µM) | > 64 | > 64 | – | – | – | – | – | – | – | 64 (≈ 109 µM) | > 17 | > 64 | 2 (≈ 3.39 µM) | 0.0017 to 1.7 | – | MIC ([5]; ATCC25923, read-out: MIC Sa26): 16 µg/mL (≈ 27.1 µM); MIC ([5]; ATCC25923, read-out: MIC Sa26 + 10% SH): 8 µg/mL; MIC ([5]; ATCC25923, read-out: MIC Sa26 + 50% SH): 16 µg/mL; MIC (S. aureus Sa1 ATCC 13709; ATCC13709, read-out: MIC Sa1): 8 µg/mL (≈ 13.6 µM); MIC (E. coli Ec1 ATCC 25922; ATCC25922, read-out: MIC Ec1): > 64 µg/mL; MIC (S. aureus Sa4 NCTC 6571; NCTC6571, read-out: MIC Sa4): 8 µg/mL (≈ 13.6 µM) |
| COC[C@@H]1[C@@H](O)[C@@H]2[C@H]3C=C[C@@H]4[C@@H](COC)C(=O)OC[C@H](C)/C=C(\C)[C@@]24O[C@H]3[C@@H]1OC(=O)c1ccc[nH]1 [Compound 22, 17,18-Dinor-8-O-1H-pyrrole-2′-carbonybranimycin] | > 64 | 4 (≈ 7.97 µM) | > 64 | > 64 | 4 | 8 | 4 (≈ 7.97 µM) | – | 4 (≈ 7.97 µM) | > 64 | 2 (≈ 3.99 µM) | > 64 | – | > 64 | 8 (≈ 15.9 µM) | 0.00199 to 1.99 | > 19.9 | – |
